Source: PMC6973020, “Quinoline‐Conjugated Ruthenacarboranes: Toward Hybrid Drugs with a Dual Mode of Action” (Chemmedchem, 2019)
“Also recorded” adds a separate entry of the source.

Experiments:
A375 human skin melanoma = assay: Crystal violet (CV) cell viability assay, A375; assay type: cell-based; conditions: 72 h
Text: (§1) Thus, care must be taken when comparing their biological activities with those of our previous studies, even with the same cell line, because the covalent vs. non‐covalent combination of drugs might imply different mechanisms of action in the cell.44 Here, we studied the in vitro activity of ruthenacarborane 3, i. e. free acid, and its 8‐hydroxyquinolyl (4) and 4‐{(7‐chloroquinolin‐4‐yl)oxy}butanol‐1‐yl (5) esters, against a panel of cancer cell lines (B16 mouse melanoma, A375 human skin melanoma, MCF‐7 human breast adenocarcinoma, LN229 human glioblastoma, U251 human glioma). Human fibroblast cell line MRC‐5, murine microglial cell line BV‐2 as well as peritoneal exudate cells (Mph), were chosen as models for non‐malignant cells. […] On the other side, we wanted to assess the reproducibility of the viability data, under either controlled (with BSA) or uncontrolled (without BSA) conditions, in two sets of independent assays. […] Cells were exposed to 3–5 for 72 h, after which cell viability was determined via 3‐(4,5‐dimethylthiazol‐2‐yl)‐2,5‐diphenyltetrazolium bromide (MTT) and crystal violet (CV) assays, in parallel (Table 2). Cisplatin was also tested as reference.
(§2) Preparation of drug solutions. […] Stock solution of cisplatin was prepared in DMF (10 mM) immediately before use. A stock solution of BSA in PBS was prepared at 1.28 mM concentration, and stored at 4 °C in the dark. […] Alternatively, 3 or 4 (DMSO stock solution) were added to the BSA solution in PBS, always with a 10 : 1 molar ratio of BSA to ruthenacarborane. The BSA−ruthenacarborane solutions were incubated 0.5–1 h at room temperature, then diluted with cell culture medium to the desired final concentrations. Final concentrations of 3 and 4 were the same as for the BSA‐free formulation. Final DMSO was 0.02–0.5 vol %.
(§3) Colorimetric assays for cellular viability. […] For counting the number of attached (viable) cells, cells were fixed with 4 % (w/v) paraformaldehyde for 10 min at room temperature, and subsequently stained for 15 min with […] crystal violet (CV) solution. Cells were then washed with tap water, dried in air, and the CV dye was dissolved in 33 % (w/v) acetic acid solution. For the detection of mitochondrial respiration, cells were cultivated in MTT staining solution (0.5 mg mL^−1) for approximately 1 h. The dye was then discarded, and the formed formazan (purple) was dissolved in DMSO. The absorbance was measured with an automated microplate reader at λmax 540 nm, with the reference λmax 670 nm. Untreated cells or cells treated only with BSA (control) were also measured, as reference for BSA‐free and BSA‐containing drug formulations, respectively. […] Cell viability is expressed as percentage (%) relative to control (untreated cultures).58 Experiments were run in three independent replicates. […]

B16 mouse melanoma = assay: MTT cell viability assay, B16; assay type: cell-based; conditions: 72 h
Text: as §1, §2, §3

[1] = system: MCF‐7 human breast adenocarcinoma; assay: MTT cell viability assay, MCF‐7; assay type: cell-based; conditions: 72 h
Text: as §1, §2, §3

U251 human glioma = assay: Crystal violet (CV) cell viability assay, U251; assay type: cell-based; conditions: CV assay, 72 h; read-out: IC50 U251
Text: as §1, §2
Colorimetric assays for cellular viability. […] For counting the number of attached (viable) cells, cells were fixed with 4 % (w/v) paraformaldehyde for 10 min at room temperature, and subsequently stained for 15 min with […] crystal violet (CV) solution. Cells were then washed with tap water, dried in air, and the CV dye was dissolved in 33 % (w/v) acetic acid solution. For the detection of mitochondrial respiration, cells were cultivated in MTT staining solution (0.5 mg mL^−1) for approximately 1 h. The dye was then discarded, and the formed formazan (purple) was dissolved in DMSO. The absorbance was measured with an automated microplate reader at λmax 540 nm, with the reference λmax 670 nm. Untreated cells or cells treated only with BSA (control) were also measured, as reference for BSA‐free and BSA‐containing drug formulations, respectively. For determination of the role of autophagy specific inhibitors, CQ or 3‐MA, were applied at a concentration of 20 μM and 0.5 mM, respectively, and the cells were stained with CV dye. Cell viability is expressed as percentage (%) relative to control (untreated cultures).58 Experiments were run in three independent replicates. […] Non‐linear regression analyses of the obtained results was done using GraphPad Prism software to calculate IC50 values.
mouse microglial cell line BV‐2 was a kind gift from Dr. Irena Lavrnja, Institute for Biological Research
“Siniša Stanković” (University of Belgrade).

[2] = system: Human fibroblast cell line MRC‐5; assay: Crystal violet (CV) cell viability assay, MRC‐5; assay type: cell-based; conditions: 72 h
Text: as §1
Preparation of drug solutions. […] Stock solution of cisplatin was prepared in DMF (10 mM) immediately before use. A stock solution of BSA in PBS was prepared at 1.28 mM concentration, and stored at 4 °C in the dark. […] Alternatively, 3 or 4 (DMSO stock solution) were added to the BSA solution in PBS, always with a 10 : 1 molar ratio of BSA to ruthenacarborane. […]
Colorimetric assays for cellular viability. […] The absorbance was measured with an automated microplate reader at λmax 540 nm, with the reference λmax 670 nm. Untreated cells or cells treated only with BSA (control) were also measured, as reference for BSA‐free and BSA‐containing drug formulations, respectively. […] Cell viability is expressed as percentage (%) relative to control (untreated cultures).58 Experiments were run in three independent replicates. […]

[3] = Stability in water‐containing DMSO‐d6 (NMR spectroscopy); assay type: physicochemical; conditions: in air, 1H and 11B{1H} NMR, over one month
Experimental: NMR spectroscopy. To determine the stability in biocompatible organic solvents, 3–5 (each ca. 3 mg) were dissolved in water‐containing DMSO‐d6 (0.6 mL) in air at room temperature, and periodically frozen (4–5 °C) and unfrozen. The solutions were analyzed with ^1H and ^11B{^1H} NMR spectroscopy over a period of one month.

Substance	IC50 (A375 human skin melanoma) [µM]	IC50 (B16 mouse melanoma) [µM]	IC50 [1] [µM]	IC50 (U251 human glioma) [µM]	IC50 [2] [µM]	stability in water‐containing DMSO‐d6 solution [3]
closo ‐[3‐(η^6‐p‐Cymene)‐1‐(quinolin‐8‐yl‐acetate)‐3,1,2‐RuC2B9H10] [Compound 4]	14.9 ± 2.1	20.4 ± 2.1	15.9 ± 0.2	45.1 ± 0.8	4.9 ± 0.1	stable; also recorded: sufficient chemical stability
closo‐ [Compound 3, closo‐ [3‐(η^6‐p‐Cymene)‐1‐(CH2COOH)‐3,1,2‐RuC2B9H10]]	18.7 ± 1.8	19.4 ± 0.9	7.7 ± 0.8	> 100	58.5 ± 0.3	stable; also recorded: sufficient chemical stability
